Measurements as given in ChEMBL document CHEMBL1152509, “ssDNA aptamers that recognize diclofenac and 2-anilinophenylacetic acid” (Bioorg Med Chem, 2009).
Calls of active or inactive are those of the source. No cut-off for these calls is given here.

Experiments:
Type in all cases: nucleic-acid assay
Nucleic Acid [1] = assay: Binding affinity to D22 ssDNA aptamer
Nucleic Acid [2] = assay: Binding affinity to D3 ssDNA aptamer
Nucleic Acid [3] = assay: Binding affinity to D16 ssDNA aptamer
Nucleic Acid [4] = assay: Binding affinity to D10/DA24 ssDNA aptamer

Row | Activity (Nucleic Acid [1]) | Activity (Nucleic Acid [2]) | Activity (Nucleic Acid [3]) | Kd (Nucleic Acid [4]) [nM] | Kd (Nucleic Acid [1]) [nM] | Kd (Nucleic Acid [2]) [nM] | Kd (Nucleic Acid [3]) [nM] | Structure (SMILES)
1 | Active | inactive | Active | – | – | – | – | O=C(O)Cc1ccccc1Nc1ccccc1
2 | – | – | – | 101 | 166 | 42.7 | 149 | O=C(O)Cc1ccccc1Nc1c(Cl)cccc1Cl [DICLOFENAC]
